ChEMBL document CHEMBL3390848, “Affinity selection and sequence-activity relationships of HIV-1 membrane fusion inhibitors directed at the drug-resistant variants” (Medchemcomm, 2010)
Residues, ends and D or L forms follow the SMILES beside them.

Columns and labels:
[1] = system: Human immunodeficiency virus 1; experiment: Binding affinity to HIV1 His-tagged N-terminal heptad repeat of envelope glycoprotein gp41 assessed as recovery of N36-drug complex at 10 uM after 2 hrs by LC-MS analysis
[2] = system: Human immunodeficiency virus 1; experiment: Thermal stability of HIV1 envelope glycoprotein gp41 His-tagged N-terminal heptad repeat N36-drug complex assessed as thermal unfolding transition state by measuring molar ellipticity at 4 to 90 degC by circular dichroic spectra analysis
[3] = system: Human immunodeficiency virus 1; experiment: Antiviral activity against HIV1 NL4-3 harboring gp41 D36G mutant infected in human HeLa cells expressing CD4-LTR-beta-gal assessed as inhibition of viral replication after 48 hrs by MAGI assay; assay type: functional, organism-based
[4] = system: Human immunodeficiency virus 1; experiment: Binding affinity to HIV1 His-tagged N-terminal heptad repeat of envelope glycoprotein gp41 assessed as recovery of N36-drug complex at 1 uM after 2 hrs by LC-MS analysis
[5] = system: Human immunodeficiency virus 1; experiment: Binding affinity to HIV1 His-tagged N-terminal heptad repeat of envelope glycoprotein gp41 assessed as recovery of N36-drug complex at 0.6 uM after 2 hrs by LC-MS analysis
[6] = system: Human immunodeficiency virus 1; experiment: Binding affinity to HIV1 His-tagged N-terminal heptad repeat of envelope glycoprotein gp41 assessed as recovery of N36-drug complex at 6 uM after 2 hrs by LC-MS analysis

SMILES | Activity [1] [%] | Tm [2] [°C] | EC50 [3] [nM] | Activity [4] [%] | Activity [5] [%] | Activity [6] [%]
CC[C@H](C)[C@H](NC(=O)[C@H](CC(C)C)NC(=O)[C@H](CCC(=O)O)NC(=O)[C@H](CCC(=O)O)NC(=O)[C@@H](NC(=O)[C@H](CCCCN)NC(=O)[C@H](CCCCN)NC(=O)[C@@H](NC(=O)[C@H](Cc1ccc(O)cc1)NC(=O)[C@H](CCC(=O)O)NC(=O)[C@H](CCC(=O)O)NC(=O)[C@@H](NC(=O)[C@H](CCCCN)NC(=O)[C@H](CCCCN)NC(=O)[C@H](CC(=O)O)NC(=O)[C@H](Cc1c[nH]c2ccccc12)NC(=O)[C@H](CCC(=O)O)NC(=O)[C@H](CCC(=O)O)NC(=O)[C@H](Cc1c[nH]c2ccccc12)NC(C)=O)[C@@H](C)CC)[C@@H](C)O)[C@@H](C)CC)C(=O)N[C@@H](CCCCN)C(=O)N[C@@H](CCCCN)C(=O)NCC(=O)N[C@@H](CCC(=O)O)C(=O)N[C@@H](CCC(=O)O)C(=O)N[C@@H](CCC(N)=O)C(=O)N[C@@H](CCC(N)=O)C(=O)N[C@@H](CCCCN)C(=O)N[C@@H](CCCCN)C(=O)N[C@@H](CC(N)=O)C(=O)N[C@@H](CCC(=O)O)C(=O)N[C@@H](CCC(=O)O)C(=O)N[C@@H](CCC(=O)O)C(=O)N[C@@H](CC(C)C)C(=O)N[C@@H](CCCCN)C(=O)N[C@@H](CCCCN)C(N)=O (Ac-WEEWDKKIEEYTKKIEELIKKGEEQQKKNEEELKK-NH2) | 13.8 | 79.1 | 1.9 | 11.6 | 5.9 | 14.4
CC[C@H](C)[C@H](NC(=O)[C@H](CC(C)C)NC(=O)[C@H](CCC(=O)O)NC(=O)[C@H](CCC(=O)O)NC(=O)[C@@H](NC(=O)[C@H](CCCCN)NC(=O)[C@H](CCCCN)NC(=O)[C@@H](NC(=O)[C@H](Cc1ccc(O)cc1)NC(=O)[C@H](CCC(=O)O)NC(=O)[C@H](CCC(=O)O)NC(=O)[C@@H](NC(=O)[C@H](CCCCN)NC(=O)[C@H](CCCCN)NC(=O)[C@H](CC(=O)O)NC(=O)[C@H](Cc1c[nH]c2ccccc12)NC(=O)[C@H](CCC(=O)O)NC(=O)[C@H](CCC(=O)O)NC(=O)[C@H](Cc1c[nH]c2ccccc12)NC(C)=O)[C@@H](C)CC)[C@@H](C)O)[C@@H](C)CC)C(=O)N[C@@H](CCCCN)C(=O)N[C@@H](CCCCN)C(=O)N[C@@H](Cc1ccccc1)C(=O)N[C@@H](CCC(=O)O)C(=O)N[C@@H](CCC(=O)O)C(=O)N[C@@H](CCC(N)=O)C(=O)N[C@@H](CCC(N)=O)C(=O)N[C@@H](CCCCN)C(=O)N[C@@H](CCCCN)C(=O)N[C@@H](CC(N)=O)C(=O)N[C@@H](CCC(=O)O)C(=O)N[C@@H](CCC(=O)O)C(=O)N[C@@H](CCC(=O)O)C(=O)N[C@@H](CC(C)C)C(=O)N[C@@H](CCCCN)C(=O)N[C@@H](CCCCN)C(N)=O (Ac-WEEWDKKIEEYTKKIEELIKKFEEQQKKNEEELKK-NH2) | 0.7 | 72.9 | 1.5 | 4 | 6.3 | 0.6
CC[C@H](C)[C@H](NC(=O)[C@H](CC(C)C)NC(=O)[C@H](CCC(=O)O)NC(=O)[C@H](CCC(=O)O)NC(=O)[C@@H](NC(=O)[C@H](CCCCN)NC(=O)[C@H](CCCCN)NC(=O)[C@@H](NC(=O)[C@H](Cc1ccc(O)cc1)NC(=O)[C@H](CCC(=O)O)NC(=O)[C@H](CCC(=O)O)NC(=O)[C@@H](NC(=O)[C@H](CCCCN)NC(=O)[C@H](CCCCN)NC(=O)[C@H](CC(=O)O)NC(=O)[C@H](Cc1c[nH]c2ccccc12)NC(=O)[C@H](CCC(=O)O)NC(=O)[C@H](CCC(=O)O)NC(=O)[C@H](Cc1c[nH]c2ccccc12)NC(C)=O)[C@@H](C)CC)[C@@H](C)O)[C@@H](C)CC)C(=O)N[C@@H](CCCCN)C(=O)N[C@@H](CCCCN)C(=O)N[C@@H](CCCCN)C(=O)N[C@@H](CCC(=O)O)C(=O)N[C@@H](CCC(=O)O)C(=O)N[C@@H](CCC(N)=O)C(=O)N[C@@H](CCC(N)=O)C(=O)N[C@@H](CCCCN)C(=O)N[C@@H](CCCCN)C(=O)N[C@@H](CC(N)=O)C(=O)N[C@@H](CCC(=O)O)C(=O)N[C@@H](CCC(=O)O)C(=O)N[C@@H](CCC(=O)O)C(=O)N[C@@H](CC(C)C)C(=O)N[C@@H](CCCCN)C(=O)N[C@@H](CCCCN)C(N)=O (Ac-WEEWDKKIEEYTKKIEELIKKKEEQQKKNEEELKK-NH2) | 0.2 | 53.5 | 8.2 | 0 | 3.6 | 0.1
CC[C@H](C)[C@H](NC(=O)[C@H](CC(C)C)NC(=O)[C@H](CCC(=O)O)NC(=O)[C@H](CCC(=O)O)NC(=O)[C@@H](NC(=O)[C@H](CCCCN)NC(=O)[C@H](CCCCN)NC(=O)[C@@H](NC(=O)[C@H](Cc1ccc(O)cc1)NC(=O)[C@H](CCC(=O)O)NC(=O)[C@H](CCC(=O)O)NC(=O)[C@@H](NC(=O)[C@H](CCCCN)NC(=O)[C@H](CCCCN)NC(=O)[C@H](CC(=O)O)NC(=O)[C@H](Cc1c[nH]c2ccccc12)NC(=O)[C@H](CCC(=O)O)NC(=O)[C@H](CCC(=O)O)NC(=O)[C@H](Cc1c[nH]c2ccccc12)NC(C)=O)[C@@H](C)CC)[C@@H](C)O)[C@@H](C)CC)C(=O)N[C@@H](CCCCN)C(=O)N[C@@H](CCCCN)C(=O)N[C@@H](CC(N)=O)C(=O)N[C@@H](CCC(=O)O)C(=O)N[C@@H](CCC(=O)O)C(=O)N[C@@H](CCC(N)=O)C(=O)N[C@@H](CCC(N)=O)C(=O)N[C@@H](CCCCN)C(=O)N[C@@H](CCCCN)C(=O)N[C@@H](CC(N)=O)C(=O)N[C@@H](CCC(=O)O)C(=O)N[C@@H](CCC(=O)O)C(=O)N[C@@H](CCC(=O)O)C(=O)N[C@@H](CC(C)C)C(=O)N[C@@H](CCCCN)C(=O)N[C@@H](CCCCN)C(N)=O (Ac-WEEWDKKIEEYTKKIEELIKKNEEQQKKNEEELKK-NH2) | 1.1 | 69 | 2.2 | 4.3 | 6.4 | 0.5
CC[C@H](C)[C@H](NC(=O)[C@H](CC(C)C)NC(=O)[C@H](CCC(=O)O)NC(=O)[C@H](CCC(=O)O)NC(=O)[C@@H](NC(=O)[C@H](CCCCN)NC(=O)[C@H](CCCCN)NC(=O)[C@@H](NC(=O)[C@H](Cc1ccc(O)cc1)NC(=O)[C@H](CCC(=O)O)NC(=O)[C@H](CCC(=O)O)NC(=O)[C@@H](NC(=O)[C@H](CCCCN)NC(=O)[C@H](CCCCN)NC(=O)[C@H](CC(=O)O)NC(=O)[C@H](Cc1c[nH]c2ccccc12)NC(=O)[C@H](CCC(=O)O)NC(=O)[C@H](CCC(=O)O)NC(=O)[C@H](Cc1c[nH]c2ccccc12)NC(C)=O)[C@@H](C)CC)[C@@H](C)O)[C@@H](C)CC)C(=O)N[C@@H](CCCCN)C(=O)N[C@@H](CCCCN)C(=O)N[C@@H](CCC(=O)O)C(=O)N[C@@H](CCC(=O)O)C(=O)N[C@@H](CCC(=O)O)C(=O)N[C@@H](CCC(N)=O)C(=O)N[C@@H](CCC(N)=O)C(=O)N[C@@H](CCCCN)C(=O)N[C@@H](CCCCN)C(=O)N[C@@H](CC(N)=O)C(=O)N[C@@H](CCC(=O)O)C(=O)N[C@@H](CCC(=O)O)C(=O)N[C@@H](CCC(=O)O)C(=O)N[C@@H](CC(C)C)C(=O)N[C@@H](CCCCN)C(=O)N[C@@H](CCCCN)C(N)=O (Ac-WEEWDKKIEEYTKKIEELIKKEEEQQKKNEEELKK-NH2) | 1.3 | 66.2 | 15 | 1.8 | 5.1 | 1
